Consider five molecules from patent US7737138B2 (priority 2004, dated 2010).

Data set [1] deals with viruses such as HIV and West Nile Virus. Conditions: MTC under the name Virostat, from Bioenvision Inc.; cited from earlier work.
The target in data set [2] is tau-tau binding: truncated tau (residues 297-390; dGA) and full-length tau (T40) (Homo sapiens, UniProt P10636). The conditions noted are these: for IC50: read-out: B50.
Data set [3] deals with full-length tau (T40) / 12 kD PHF-core tau fragment in fibroblast cells (3T6) (Homo sapiens, UniProt P10636). In words: cell-based. It is filed as cell-based.
Sequence of full-length tau (T40) / 12 kD PHF-core tau fragment in fibroblast cells (3T6) (P10636 612-707): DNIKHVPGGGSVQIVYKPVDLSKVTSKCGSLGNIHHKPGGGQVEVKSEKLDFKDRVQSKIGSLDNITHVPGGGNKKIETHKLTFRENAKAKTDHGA
For data set [4], the system named is fibroblast cells (3T6). Set-up: unit not given beside the values.

Counter-ions that a name gives are not always drawn. Like-named read-outs stand apart in the source and are kept apart here.

Sequence of tau-tau binding: truncated tau (residues 297-390; dGA) and full-length tau (T40) (P10636 614-707): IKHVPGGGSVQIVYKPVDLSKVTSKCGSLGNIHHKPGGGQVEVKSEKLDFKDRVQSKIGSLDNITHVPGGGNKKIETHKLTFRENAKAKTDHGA

For the molecule `CN(C)c1ccc2nc3ccc(N(C)C)cc3[s+]c2c1` [MTC, Methythioninium Chloride], the “viricidal activity in vitro” value in data set [1] is on record as “potent viricidal activity”.
As to Ethyl-thioninium iodide [ETI], in data set [2] (concentration of compound required to inhibit the tau-tau binding by 50%, […]), the IC50 was above 500000 nM. For the same molecule, a half-maximal effect in data set [3] (EC50) was put at 60 nM.
As for Ethylthioninium Chloride [ETC], the LD50 in data set [4] is recorded as 32.0 ± 4.0 (26). The IC50 in data set [2] amounted to 49000 nM. Moreover, the EC50 (as a rule, the concentration needed to bring the measured effect to its halfway point) in data set [3] was 70 nM.
On to “1,9-Diethyl Ethylthioninium chloride [DEETC]”, for which, in data set [4], the LD50 was 1.6 ± 0.4 (13). Besides, in data set [2], the IC50 was found to be 3700 nM. Also, in data set [3], it took 0.6 nM to reach a half-maximal effect (EC50).
For the molecule `CCN(CC)c1ccc2nc3ccc(N(CC)CC)cc3[s+]c2c1` [ETZ, Ethylthioninium Chloride (ETC) Zinc Chloride (Double Salt)], in data set [2], the B50 was 145.4 ± 5.7 (5). In addition, a half-maximal response in data set [3] (EC50) required 60 nM.
